Laboratory results as given in patent publication US5679700A, “Substituted phosphinic acid-containing peptidyl derivatives as antidegenerative agents” (Merck & Co., Inc., priority 1995, dated 1997).

Key:
[1] = target: Human Fibroblast STROMELYSIN (Homo sapiens, UniProt P08254); assay: biochemical; conditions: SE in parentheses
[2] = target: T1, GELATINASE (Homo sapiens, UniProt P08253); assay: inhibition of cleavage of fluorogenic peptide DNP-Pro-Leu-Gly-Leu-Trp-Ala-(D)-Arg-NH2 by gelatinase; type: biochemical; conditions: Human Fibroblast; SE in parentheses
T1 sequence (P08253 110-660): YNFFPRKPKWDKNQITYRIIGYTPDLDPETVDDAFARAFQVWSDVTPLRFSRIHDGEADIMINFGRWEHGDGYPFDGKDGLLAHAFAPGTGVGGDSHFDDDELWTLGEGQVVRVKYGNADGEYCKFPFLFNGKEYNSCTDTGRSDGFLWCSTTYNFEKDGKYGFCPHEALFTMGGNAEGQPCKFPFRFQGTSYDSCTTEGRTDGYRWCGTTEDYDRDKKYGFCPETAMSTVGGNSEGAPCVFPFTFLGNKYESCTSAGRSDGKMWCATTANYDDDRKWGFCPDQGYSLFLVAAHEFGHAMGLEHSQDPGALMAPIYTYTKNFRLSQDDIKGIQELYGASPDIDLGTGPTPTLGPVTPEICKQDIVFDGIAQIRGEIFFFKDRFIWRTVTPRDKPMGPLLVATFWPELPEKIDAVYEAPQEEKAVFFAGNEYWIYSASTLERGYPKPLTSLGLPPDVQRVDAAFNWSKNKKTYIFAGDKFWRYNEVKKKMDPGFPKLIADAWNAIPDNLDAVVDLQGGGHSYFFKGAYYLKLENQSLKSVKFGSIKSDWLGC

[3] = target: T2, COLLAGENASE (Homo sapiens, UniProt P03956); assay: inhibition of cleavage of fluorogenic peptide DNP-Pro-Leu-Gly-Leu-Trp-Ala-(D)-Arg-NH2 by collagenase; type: biochemical; conditions: Human Fibroblast; SE in parentheses where printed
T2 sequence (P03956 100-469): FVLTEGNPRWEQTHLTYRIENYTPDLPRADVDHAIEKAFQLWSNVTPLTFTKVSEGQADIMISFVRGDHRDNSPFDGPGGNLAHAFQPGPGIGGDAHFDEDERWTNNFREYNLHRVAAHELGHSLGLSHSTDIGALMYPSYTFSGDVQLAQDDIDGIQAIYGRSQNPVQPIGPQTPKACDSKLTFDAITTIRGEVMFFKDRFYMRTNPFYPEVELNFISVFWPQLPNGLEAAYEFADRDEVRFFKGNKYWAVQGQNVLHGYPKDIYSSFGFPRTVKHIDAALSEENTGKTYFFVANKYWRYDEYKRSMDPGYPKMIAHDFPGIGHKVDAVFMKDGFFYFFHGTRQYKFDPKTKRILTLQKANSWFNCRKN

[4] = target: human rheumatoid synovial collagenase; conditions: cited from earlier work
[5] = target: rabbit bone proteoglycanase; conditions: cited from earlier work

Sequence of Human Fibroblast STROMELYSIN (P08254 100-477): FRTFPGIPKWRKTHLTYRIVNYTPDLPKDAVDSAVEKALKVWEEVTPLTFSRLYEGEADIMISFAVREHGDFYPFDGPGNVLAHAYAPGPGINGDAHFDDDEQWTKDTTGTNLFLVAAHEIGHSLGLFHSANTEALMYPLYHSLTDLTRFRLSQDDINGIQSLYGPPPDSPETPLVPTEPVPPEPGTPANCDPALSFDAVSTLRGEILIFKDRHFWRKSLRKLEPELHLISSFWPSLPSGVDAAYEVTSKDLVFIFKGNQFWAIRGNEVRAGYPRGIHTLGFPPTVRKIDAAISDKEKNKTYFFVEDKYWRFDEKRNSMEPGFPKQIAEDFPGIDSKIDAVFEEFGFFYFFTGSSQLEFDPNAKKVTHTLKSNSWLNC

Structure (SMILES) | Ki [1] [µM] | Ki [2] [µM] | Ki [3] [nM] | IC50 [4] [nM] | IC50 [5] [nM]
CC(=O)N1CCC[C@H]1C(=O)N[C@@H](C)C(=O)N[C@@H](C)P(=O)(O)CC(CCc1ccccc1)C(=O)N[C@@H](CC(C)C)C(=O)Nc1ccccc1 (stereo partly drawn) [(R)CH(CH3)NHAlaProAc, [[Hydroxy[1(R)-[N-(N-acetyl-L-prolyl-L-alanyl)-amino]-ethyl]-phosphinyl]-methyl]-4-phenylbutanoyl-L-leucyl N-phenylamide] | 0.0061 | 0.0026 | 2900 | – | –
CNC(=O)[C@H](Cc1ccc(OC)cc1)NC(=O)[C@H](CC(C)C)NC(CCNC(=O)OCc1ccccc1)C(=O)O (stereo partly drawn) [N-[3-(benzyloxycarbonyl)amino-1-carboxy-n-propyl]-L-leucyl-O-methyl-L-tyrosine, N-methylamide] | – | – | – | 800 | 500

Now from value to molecule, other results behind:

Ki [1] [µM] | Ki [2] [µM] | Structure (SMILES) | Ki [3] [nM] | IC50 [4] [nM] | IC50 [5] [nM]
0.022 | 0.0056 | CC(C)C[C@H](NC(=O)C(CCc1ccccc1)CP(=O)(O)CCCCNC(=O)NC(C)C)C(=O)Nc1ccccc1 (some centres unmarked) [(CH2)4 NCHCONH-i-C3 H7] | – | – | –
0.019 | 0.034 | CC(C)COC(=O)NCCCCP(=O)(O)CC(CCc1ccccc1)C(=O)N[C@@H](CC(C)C)C(=O)Nc1ccccc1 (some centres unmarked) [(CH2)4 NCO2 -i-C4 H4] | – | – | –
– | 0.026 | CC(C)C[C@H](NC(=O)C(CCc1ccccc1)CP(=O)(O)CCCCN1C(=O)c2ccccc2C1=O)C(=O)Nc1ccccc1 (stereo partly drawn) [(CH2)4 NPhth, (2-(((4-(1,3-Dihydro-1,3-dioxo-2H-isoindol-2-yl)butyl)hydroxyphosphinyl)methyl)-4-phenylbutanoyl)-L-leucine N-phenylamide] | 1000 | – | –
